Measured values as given in patent US20250179094A1, “TGF-B INHIBITOR COMPOUND AND USE THEREOF” (Medinno Pharmaceutical Technology (Zhuhai) Co., Ltd., priority 2022, published 2025).

Biological target: human TGFβR1 (Homo sapiens (Human), UniProt P36897)
Assay: TGFβR1 kinase activity assay (ADP-Glo method)
Format: biochemical
Settings: ATP 5 uM, TGFβR1tide substrate, 60 minutes at room temperature
Method: The principle of the activity assay was that TGFβR1 phosphorylates the substrate TGFβR1tide, consuming ATP in the process. […] The specific experimental steps were as follows. Compounds were diluted 4-fold in DMSO in a dilution plate, with the final starting concentration of the compounds being 10 μM, across 10 concentration gradient points. The compounds were then further diluted 50-fold into the kinase reaction buffer and incubated on a shaker for 20 minutes. Kinase was formulated with an enzyme reaction buffer. 2 μl kinase was added to each well of the reaction plate. 1 μl of the compound diluted in buffer was added to each well, and then the plate was sealed with a sealing membrane and centrifuged at 1000 g for 30 seconds, leaving it at room temperature for 10 minutes. Solutions of TGFβR1tide and ATP were prepared with the kinase reaction buffer, and 2 μL of the TGFβR1tide/ATP solution was added to the reaction plate. The plate was sealed with a sealing film and centrifuged at 1000 g for 30 seconds. It was allowed to react at room temperature for 60 minutes. Subsequently, 4 μL of ADP-Glo was transferred to a 384-well reaction plate and centrifuged at 1000 rpm/min for 1 minute, followed by incubation at 25° C. for 40 minutes. Then, 8 μL of Detection solution was transferred to the 384-well reaction plate and centrifuged at 1000 rpm/min for 1 minute, after which it was incubated at 25° C. for 40 minutes. The RLU (Relative Luminescence Unit) signal was read using a BMG microplate reader, which was used to characterize the degree of kinase activity.
3.1 The inhibition rate was calculated as follows: inhibition rate of compound (% inh)=100%−(compound−positive control)/(negative control−positive control)*100%.
The IC50 (half inhibition concentration) of a compound was obtained using the following non-linear fitting equation, wherein data analysis was performed using Graphpad 7.0 software.
X: log value of compound concentration; and Y: inhibition rate (% inhibition)

human TGFβR1, sequence (P36897 34-503): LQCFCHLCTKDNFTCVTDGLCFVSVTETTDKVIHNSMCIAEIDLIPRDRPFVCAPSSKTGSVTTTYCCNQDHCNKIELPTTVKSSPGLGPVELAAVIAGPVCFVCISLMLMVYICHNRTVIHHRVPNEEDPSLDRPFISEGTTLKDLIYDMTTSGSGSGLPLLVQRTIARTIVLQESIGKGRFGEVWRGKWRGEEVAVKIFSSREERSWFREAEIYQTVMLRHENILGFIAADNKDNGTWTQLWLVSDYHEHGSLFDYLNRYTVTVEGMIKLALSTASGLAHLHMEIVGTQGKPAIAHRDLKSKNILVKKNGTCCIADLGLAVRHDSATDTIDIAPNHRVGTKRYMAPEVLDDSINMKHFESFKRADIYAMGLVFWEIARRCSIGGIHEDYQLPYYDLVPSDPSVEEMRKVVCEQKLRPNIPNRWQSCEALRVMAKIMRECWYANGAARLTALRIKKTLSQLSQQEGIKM

Row | Structure (SMILES) | IC50
1 | CCN(C)C(=O)N1Cc2nc(-c3cc(-c4c(-c5cccc(C)n5)nc5n4CCC5)ccn3)[nH]c2C1 [Compound 32, N-Ethyl-N-methyl-2-(4-(2-(6-methylpyridin-2-yl)-6,7-dihydro-5H-pyrrolo[1,2-a]imidazol-3-yl)pyridin-2-yl)-4,6-dihydropyrrolo[3,4-d]imidazol-5(1H)-carboxamide] | 2.3 nM
2 | Cc1cccc(-c2nn(C)cc2-c2ccnc(-c3nc4c([nH]3)CN(C(=O)C3CC(O)C3)C4)c2)n1 (stereo not shown) [Compound 42, (3-Hydroxycyclobutyl)(2-(4-(1-methyl-3-(6-methylpyridin-2-yl)-1H-pyrazol-4-yl)pyridin-2-yl)-4,6-dihydropyrrolo[3,4-d]imidazol-5(1H)-yl)ketone] | 27 nM
3 | Cc1cccc(-c2n[nH]cc2-c2ccnc(-c3nc4c([nH]3)CN(C(=O)N(C)C)C4)c2)n1 [Compound 59, N,N-Dimethyl-2-(4-(3-(6-methylpyridin-2-yl)-1H-pyrazol-4-yl)pyridin-2-yl)-4,6-dihydro pyrrolo[3,4-d]imidazol-5(1H)-carboxamide] | 9.2 nM
4 | Cc1cccc(-c2nc3n(c2-c2ccnc(-c4nc5c([nH]4)CN(S(C)(=O)=O)CC5)c2)CCC3)n1 [Compound 63, 2-(4-(2-(6-methylpyridin-2-yl)-6,7-dihydro-5H-pyrrolo[1,2-a]imidazol-3-yl)pyridin-2-yl)-5-(methylsulfonyl)-4,5,6,7-tetrahydro-3H-imidazolo[4,5-c]pyridine] | 1.6 nM
5 | Cc1cccc(-c2nn(C(C)C)cc2-c2ccnc(-c3nc4c([nH]3)CN(S(C)(=O)=O)C4)c2)n1 [Compound 46, 2-[4-(1-Isopropyl-3-(6-methylpyridin-2-yl)-1H-pyrazol-4-yl)pyridin-2-yl]-5-(methylsulfonyl)-1,4,5,6-tetrahydropyrrolo[3,4-d]imidazole] | 1.7 nM
6 | Cc1cccc(-c2nn(CC3CC(O)C3)cc2-c2ccnc(-c3nc4c([nH]3)CN(S(C)(=O)=O)C4)c2)n1 (stereo not shown) [Compound 49, 3-((3-(6-Methylpyridin-2-yl)-4-(2-(5-(methylsulfonyl)-1,4,5,6-tetrahydropyrrolo[3,4-d]imidazol-2-yl)pyridin-4-yl)-1H-pyrazol-1-yl)methyl)cyclobutanol] | 3 nM
7 | Cc1cccc(-c2nc3n(c2-c2ccnc(-c4nc5c([nH]4)CN(C(=O)CC#N)C5)c2)CCC3)n1 [Compound 64, 3-(2-(4-(2-(6-Methylpyridin-2-yl)-6,7-dihydro-5H-pyrrolo[1,2-a]imidazol-3-yl)pyridin-2-yl)-4,6-dihydropyrrolo[3,4-d]imidazol-5(1H)-yl)-3-oxopropanenitrile] | 7.3 nM
8 | CCn1cc(-c2ccnc(-c3nc4c([nH]3)CN(C(=O)N(C)C)C4)c2)c(-c2cccc(C)n2)n1 [Compound 60, 2-(4-(1-Ethyl-3-(6-methylpyridin-2-yl)-1H-pyrazol-4-yl)pyridin-2-yl)-N,N-dimethyl-4,6-dihydropyrrolo[3,4-d]imidazol-5(1H)-carboxamide] | 1.8 nM
9 | Cc1cccc(-c2nc3n(c2-c2ccnc(-c4nc5c([nH]4)CN(CC(C)O)C5)c2)CCC3)n1 (stereo not shown) [Compound 12, 1-(2-(4-(2-(6-Methylpyridin-2-yl)-6,7-dihydro-5H-pyrrolo[1,2-a]imidazol-3-yl)pyridin-2-yl)-4,6-dihydropyrrolo[3,4-d]imidazol-5(1H)-yl)propan-2-ol] | 4.3 nM
10 | Cc1cccc(-c2nc3n(c2-c2ccnc(-c4nc5c([nH]4)CN(C(=O)C4CC(O)C4)C5)c2)CCC3)n1 (stereo not shown) [Compound 10, (3-Hydroxycyclobutyl)(2-(4-(2-(6-methylpyridin-2-yl)-6,7-dihydro-5H-pyrrolo[1,2-a]imidazol-3-yl)pyridin-2-yl)-4,6-dihydropyrrolo[3,4-d]imidazol-5(1H)-yl)ketone] | 2.2 nM
11 | Cc1cccc(-c2nc3n(c2-c2ccnc(-c4nc5c([nH]4)CN(S(C)(=O)=O)C5)c2)CCC3)n1 [Compound 9, 2-(4-(2-(6-Methylpyridin-2-yl)-6,7-dihydro-5H-pyrrolo[1,2-a]imidazol-3-yl)pyridin-2-yl)-5-(methylsulfonyl)-1,4,5,6-tetrahydropyrrolo[3,4-d]imidazole] | 5.4 nM
12 | Cc1cccc(-c2nn3c(c2-c2ccnc(-c4nc5c([nH]4)CN(C(=O)N(C)C)C5)c2)CCC3)n1 [Compound 67, N,N-Dimethyl-2-(4-(2-(6-methylpyridin-2-yl)-5,6-dihydro-4H-pyrrolo[1,2-b]pyrazol-3-yl)pyridin-2-yl)-4,6-dihydropyrrolo[3,4-d]imidazole-5(1H)-carboxamide] | 2 nM
13 | CCN(C)C(=O)N1Cc2nc(-c3cc(-c4c(-c5cccc(C)n5)nn5c4CCC5)ccn3)[nH]c2C1 [Compound 74, N-Ethyl-N-methyl-2-(4-(2-(6-methylpyridin-2-yl)-5,6-dihydro-4H-pyrrolo[1,2-b]pyrazol-3-yl)pyridin-2-yl)-4,6-dihydropyrrolo[3,4-d]imidazole-5(1H)-carboxamide] | 1.7 nM
14 | Cc1cccc(-c2nc3n(c2-c2ccnc(-c4nc5c([nH]4)CN(C4CCN(C)CC4)C5)c2)CCC3)n1 [Compound 13, 5-(1-Methylpiperidin-4-yl)-2-(4-(2-(6-methylpyridin-2-yl)-6,7-dihydro-5H-pyrrolo[1,2-a]imidazol-3-yl)pyridin-2-yl)-1,4,5,6-tetrahydropyrrolo[3,4-d]imidazole] | 11.9 nM
15 | Cc1cccc(-c2nn(Cc3ccccc3)cc2-c2ccnc(-c3nc4c([nH]3)CN(S(C)(=O)=O)C4)c2)n1 [Compound 48, 2-[4-(1-Benzyl-3-(6-methylpyridin-2-yl)-1H-pyrazol-4-yl)pyridin-2-yl]-5-(methylsulfonyl)-1,4,5,6-tetrahydropyrrolo[3,4-d]imidazole] | 1.6 nM
16 | CC(=O)N1Cc2nc(-c3cc(-c4c(-c5cccc(C)n5)nc5n4CCC5)ccn3)[nH]c2C1 [Compound 1, 1-(2-(4-(2-(6-methylpyridin-2-yl)-6,7-dihydro-5H-pyrrolo[1,2-a]imidazol-3-yl)pyridin-2-yl)-4,6-dihydropyrrolo[3,4-d]imidazol-5(1H)-yl)ethan-1-one] | 21 nM
17 | COC(=O)N1Cc2nc(-c3cc(-c4c(-c5cccc(C)n5)nc5n4CCC5)ccn3)[nH]c2C1 [Compound 30, Methyl 2-(4-(2-(6-Methylpyridin-2-yl)-6,7-dihydro-5H-pyrrolo[1,2-alimidazol-3-yl)pyridin-2-yl)-4,6-dihydropyrrolo[3,4-d]imidazol-5(1H)-carboxylate] | 5.7 nM
18 | Cc1cccc(-c2nc3n(c2-c2ccnc(-c4nc5c([nH]4)CN(C(=O)N(C)C)C5)c2)CCC3)n1 [Compound 29, N,N-Dimethyl-2-(4-(2-(6-methylpyridin-2-yl)-6,7-dihydro-5H-pyrrolo[1,2-a]imidazol-3-yl)pyridin-2-yl)-4,6-dihydropyrrolo[3,4-d]imidazol-5(1H)-carboxamide] | 0.18 nM
19 | Cc1cccc(-c2nn(C)cc2-c2ccnc(-c3nc4c([nH]3)CN(S(C)(=O)=O)C4)c2)n1 [Compound 39, 2-[4-(1-Methyl-3-(6-methylpyridin-2-yl)-1H-pyrazol-4-yl)pyridin-2-yl]-5-(methylsulfonyl)-1,4,5,6-tetrahydropyrrolo[3,4-d]imidazole] | 2 nM
20 | CCS(=O)(=O)N1Cc2nc(-c3cc(-c4c(-c5cccc(C)n5)nn5c4CCC5)ccn3)[nH]c2C1 [Compound 68] | 8.1 nM
21 | Cc1cccc(-c2nc3n(c2-c2ccnc(-c4nc5c([nH]4)CN(C(=O)N4CCOCC4)C5)c2)CCC3)n1 [Compound 14] | 7.9 nM
22 | Cc1cccc(-c2nn3c(c2-c2ccnc(-c4nc5c([nH]4)CN(C(=O)C4CC(O)C4)C5)c2)CCC3)n1 (stereo not shown) [Compound 65, (3-Hydroxycyclobutyl)(2-(4-(2-(6-methylpyridin-2-yl)-5,6-dihydro-4H-pyrrolo[1,2-b]pyrazol-3-yl)pyridin-2-yl)-4,6-dihydropyrrolo[3,4-d]imidazol-5(1H)-yl)ketone] | 0.7 nM
23 | Cc1cccc(-c2nn(C)cc2-c2ccnc(-c3nc4c([nH]3)CN(C(=O)N(C)C)C4)c2)n1 [Compound 58, N,N-Dimethyl-2-(4-(1-methyl-3-(6-methylpyridin-2-yl)-1H-pyrazol-4-yl)pyridin-2-yl)-4,6-dihydropyrrolo[3,4-d]imidazol-5(1H)-carboxamide] | 1.8 nM
24 | Cc1cccc(-c2nc3n(c2-c2ccnc(-c4nc5c([nH]4)CN(C(=O)N4CCN(C)CC4)C5)c2)CCC3)n1 [Compound 4, (4-methylpiperazin-1-yl)(2-(4-(2-(6-methylpyridin-2-yl)-6,7-dihydro-5H-pyrrolo[1,2-a]imidazol-3-yl)pyridin-2-yl)-4,6-dihydropyrrolo[3,4-d]imidazol-5(1H)-yl)ketone] | 3.8 nM
25 | Cc1cccc(-c2nc3n(c2-c2ccnc(-c4nc5c([nH]4)CN(C4CCC(O)CC4)C5)c2)CCC3)n1 (stereo not shown) [Compound 25, 4-(2-(4-(2-(6-Methylpyridin-2-yl)-6,7-dihydro-5H-pyrrolo[1,2-a]imidazol-3-yl)pyridin-2-yl)-4,6-dihydropyrrolo[3,4-d]imidazol-5(1H)-yl)cyclohexan-1-ol] | 25 nM
